Measurements: the supplement of paper PMC11451515

System: NOMO1
Assay: cell viability relative to DMSO control; higher = less cytotoxic
Details: 48 h
Outline: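 Three leukemia lines were tested: NOMO1 and SEM at 500 cells/well and P12-Ichikawa at 1000 cells/well. Each was adapted for at least four passages in each medium and seeded in 5 μl in 1536-well plates, and library compounds in DMSO were pin-dosed from 47 μM to 0.79 nM in 11 threefold steps. After 48 h at 37°C, CellTiter-Glo One luminescence was read. Viability is a percentage relative to DMSO wells on each plate, with cell-free wells as background.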

[1] = HPLM + 10% dialyzed FBS, 0.000781 µM
[2] = HPLM + 10% dialyzed FBS, 0.00234 µM
[3] = HPLM + 10% dialyzed FBS, 0.00702 µM
[4] = HPLM + 10% dialyzed FBS, 0.0211 µM
[5] = HPLM + 10% dialyzed FBS, 0.0632 µM
[6] = HPLM + 10% dialyzed FBS, 0.19 µM
[7] = HPLM + 10% dialyzed FBS, 0.569 µM
[8] = HPLM + 10% dialyzed FBS, 1.71 µM
[9] = HPLM + 10% dialyzed FBS, 5.12 µM
[10] = HPLM + 10% dialyzed FBS, 15.4 µM
[11] = HPLM + 10% dialyzed FBS, 46.1 µM
[12] = RPMI 5 mM glucose + 10% FBS, 0.000781 µM
[13] = RPMI 5 mM glucose + 10% FBS, 0.00234 µM
[14] = RPMI 5 mM glucose + 10% FBS, 0.00702 µM
[15] = RPMI 5 mM glucose + 10% FBS, 0.0211 µM
[16] = RPMI 5 mM glucose + 10% FBS, 0.0632 µM
[17] = RPMI 5 mM glucose + 10% FBS, 0.19 µM
[18] = RPMI 5 mM glucose + 10% FBS, 0.569 µM
[19] = RPMI 5 mM glucose + 10% FBS, 1.71 µM
[20] = RPMI 5 mM glucose + 10% FBS, 5.12 µM
[21] = RPMI 5 mM glucose + 10% FBS, 15.4 µM
[22] = RPMI 5 mM glucose + 10% FBS, 46.1 µM
[23] = RPMI 5 mM glucose + 10% dialyzed FBS, 0.000781 µM
[24] = RPMI 5 mM glucose + 10% dialyzed FBS, 0.00234 µM
[25] = RPMI 5 mM glucose + 10% dialyzed FBS, 0.00702 µM
[26] = RPMI 5 mM glucose + 10% dialyzed FBS, 0.0211 µM
[27] = RPMI 5 mM glucose + 10% dialyzed FBS, 0.0632 µM
[28] = RPMI 5 mM glucose + 10% dialyzed FBS, 0.19 µM
[29] = RPMI 5 mM glucose + 10% dialyzed FBS, 0.569 µM
[30] = RPMI 5 mM glucose + 10% dialyzed FBS, 1.71 µM
[31] = RPMI 5 mM glucose + 10% dialyzed FBS, 5.12 µM
[32] = RPMI 5 mM glucose + 10% dialyzed FBS, 15.4 µM
[33] = RPMI 5 mM glucose + 10% dialyzed FBS, 46.1 µM

SMILES | cell viability [1] | cell viability [2] | cell viability [3] | cell viability [4] | cell viability [5] | cell viability [6] | cell viability [7] | cell viability [8] | cell viability [9] | cell viability [10] | cell viability [11] | cell viability [12] | cell viability [13] | cell viability [14] | cell viability [15] | cell viability [16] | cell viability [17] | cell viability [18] | cell viability [19] | cell viability [20] | cell viability [21] | cell viability [22] | cell viability [23] | cell viability [24] | cell viability [25] | cell viability [26] | cell viability [27] | cell viability [28] | cell viability [29] | cell viability [30] | cell viability [31] | cell viability [32] | cell viability [33]
CN(C)CCOC(c1ccccc1)c1ccccc1 | 94.4% | 84% | 105% | 116% | 111% | 112% | 112% | 113% | 109% | 104% | 83.5% | 112% | 111% | 106% | 121% | 117% | 106% | 115% | 107% | 107% | 101% | 53.6% | 94.6% | 112% | 101% | 113% | 122% | 111% | 110% | 109% | 104% | 119% | 64.6%
C=C(C)[C@@H]1CC[C@]2(C)CC[C@]3(C)[C@H](CC[C@@H]4[C@@]5(C)CC[C@H](O)C(C)(C)[C@@H]5CC[C@]43C)[C@@H]12 | 90.7% | 95.3% | 104% | 123% | 115% | 127% | 109% | 119% | 134% | 117% | 131% | 106% | 111% | 114% | 126% | 121% | 127% | 121% | 115% | 124% | 130% | 115% | 113% | 106% | 111% | 106% | 100% | 113% | 113% | 123% | 123% | 124% | 115%
CCOC(=O)Nc1ccc(NCc2ccc(F)cc2)cc1N | 112% | 120% | 126% | 129% | 116% | 110% | 121% | 107% | 99.1% | 65.1% | 31.5% | 107% | 112% | 117% | 116% | 117% | 118% | 112% | 113% | 105% | 94.3% | 24.6% | 115% | 133% | 119% | 119% | 115% | 123% | 110% | 107% | 107% | 89.8% | 33.9%
CN(N=O)C(=O)N[C@H]1C(O)OC(CO)[C@@H](O)[C@@H]1O (some centres not stated) | 82.7% | 89.7% | 98.6% | 95.7% | 98.6% | 82.6% | 90.2% | 85% | 83.1% | 93.1% | 88.4% | 77.7% | 79.6% | 82.4% | 80.6% | 81.3% | 90.3% | 85.7% | 73.7% | 81.5% | 88% | 79.5% | 69.3% | 78.8% | 74.3% | 75.5% | 84.3% | 75.6% | 81.2% | 82.7% | 81.4% | 86% | 72.4%
Cc1ccc(C(C)(O)c2nc3ccccc3s2)c(C)c1 (configuration not stated) | 88.5% | 124% | 115% | 109% | 130% | 127% | 113% | 132% | 98.3% | 55.7% | 28.8% | 95.7% | 101% | 105% | 113% | 105% | 113% | 110% | 114% | 116% | 52.6% | 21.1% | 107% | 107% | 104% | 113% | 113% | 114% | 108% | 117% | 104% | 100% | 39.2%
CC[C@H]1OC(=O)[C@H](C)[C@@H](O[C@H]2C[C@@](C)(OC)[C@@H](O)[C@H](C)O2)[C@H](C)[C@@H](O[C@@H]2O[C@@H](C)C[C@H](N(C)C)[C@H]2O)[C@](C)(O)C[C@@H](C)C(=O)[C@H](C)[C@@H](O)[C@]1(C)O | 86.3% | 80.4% | 97.4% | 93% | 105% | 105% | 108% | 87% | 80.9% | 63.4% | 56.7% | 77.5% | 81% | 79.8% | 94.9% | 91.8% | 92.1% | 88.8% | 84.9% | 81% | 88.8% | 55% | 77.8% | 90.3% | 91% | 91.6% | 102% | 86.8% | 93.3% | 101% | 90.3% | 95.3% | 51.8%
NC(=O)N1c2ccccc2CC(=O)c2ccccc21 | 115% | 124% | 121% | 126% | 123% | 136% | 128% | 137% | 126% | 143% | 163% | – | – | – | – | – | – | – | – | – | – | – | – | – | – | – | – | – | – | – | – | – | –
CSC1=CC(=CC=C1)NC2=NC3=C(C=N2)/C=C(C(=O)N3C)/C4=C(Cl)C=CC=C4Cl | 96.6% | 114% | 118% | 101% | 119% | 101% | 108% | 107% | 115% | 114% | 108% | 96.1% | 124% | 128% | 109% | 118% | 101% | 121% | 118% | 103% | 116% | 102% | 84.7% | 95.5% | 104% | 91.3% | 120% | 118% | 109% | 112% | 111% | 94% | 108%
